{"source": "paper doi:10.1101/2025.08.13.670037v1", "about": "(bioRxiv, 2025)", "test": "Stability of peptide in human plasma", "format": "in vitro ADME", "note": "No end group written: not given here."}
{"sequence": "PVLDLFRELLNELLEALKQKLKPDWLKAFYDKVAEKLKEAF [22A-P-18A]", "values": [{"measurement": "peptide lost, in sHDL particles", "setting": "human plasma, 24h incubation", "result": 15, "unit": "%"}, {"measurement": "remaining at 24 h, 0.25 mg/mL", "setting": "human, plasma, SD", "result": "73.6 ± 6.3", "unit": "%"}]}
